Measurements from the supplement of paper PMC10307832.

Key:
Experiment in all cases: relative viability (nuclei count vs DMSO), 5 days (fraction); higher = more cells survive
[1] = system: NCI-H1793
Outline: (§1)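 One day after seeding in 1536-well plates, lung cancer cell lines were dosed by pin tool. Dosing was either single-drug or a fixed anchor-drug dose plus five library-drug doses (not always all listed) in √10 steps. After 5 days, nuclei were stained in one fix-and-stain step and counted on 4× images, and relative viability is the nuclei count of treated wells over that of vehicle wells, given as the median of duplicate plates.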

[2] = system: LXF-289
Outline: as §1

[3] = system: NCI-H2228
Outline: as §1

[4] = system: HCC-827
Outline: as §1

[5] = system: NCI-H2405
Outline: as §1

[6] = system: NCI-H3122
Outline: as §1

[7] = system: NCI-H1944
Outline: as §1

[8] = system: BEN
Outline: as §1

[9] = system: RERF-LC-KJ
Outline: as §1

[10] = system: CAL-12T
Outline: as §1

[11] = system: NCI-H322M
Outline: as §1

[12] = system: NCI-H1650
Outline: as §1

[13] = system: HOP-62
Outline: as §1

[14] = system: NCI-H647
Outline: as §1

[15] = system: NCI-H1395
Outline: as §1

[16] = system: LCLC-97TM1
Outline: as §1

[17] = system: NCI-H1437
Outline: as §1

[18] = system: HCC-44
Outline: as §1

[19] = system: NCI-H2087
Outline: as §1

[20] = system: SK-LU-1
Outline: as §1

[21] = system: NCI-H727
Outline: as §1

[22] = system: 201T
Outline: as §1

## CC1(C)CCC(c2ccc(Cl)cc2)=C(CN2CCN(c3ccc(C(=O)NS(=O)(=O)c4ccc(N[C@H](CCN5CCOCC5)CSc5ccccc5)c(S(=O)(=O)C(F)(F)F)c4)cc3)CC2)C1 [Navitoclax] + CS(=O)(=O)CCNCc1ccc(-c2ccc3ncnc(Nc4ccc(OCc5cccc(F)c5)c(Cl)c4)c3c2)o1 [Lapatinib] (partner 2 µM)
[1]; first compound 0.005 µM
  relative viability: 0.601
[1]; first compound 0.01581 µM
  relative viability: 0.779
[1]; first compound 0.05 µM
  relative viability: 0.467
[1]; first compound 0.1581 µM
  relative viability: 0.843
[1]; first compound 0.5 µM
  relative viability: 0.557
[2]; first compound 0.005 µM
  relative viability: 0.9
[2]; first compound 0.01581 µM
  relative viability: 0.91
[2]; first compound 0.05 µM
  relative viability: 0.864
[2]; first compound 0.1581 µM
  relative viability: 0.901
[2]; first compound 0.5 µM
  relative viability: 0.902
[3]; first compound 0.005 µM
  relative viability: 1.09
[3]; first compound 0.01581 µM
  relative viability: 0.9
[3]; first compound 0.05 µM
  relative viability: 1.14
[3]; first compound 0.1581 µM
  relative viability: 0.893
[3]; first compound 0.5 µM
  relative viability: 1.03
[4]; first compound 0.005 µM
  relative viability: 0.199
[4]; first compound 0.01581 µM
  relative viability: 0.2
[4]; first compound 0.05 µM
  relative viability: 0.194
[4]; first compound 0.1581 µM
  relative viability: 0.21
[4]; first compound 0.5 µM
  relative viability: 0.196
[5]; first compound 0.005 µM
  relative viability: 1.03
[5]; first compound 0.01581 µM
  relative viability: 1.29
[5]; first compound 0.05 µM
  relative viability: 1.19
[5]; first compound 0.1581 µM
  relative viability: 1.02
[5]; first compound 0.5 µM
  relative viability: 0.927
[6]; first compound 0.005 µM
  relative viability: 0.998
[6]; first compound 0.01581 µM
  relative viability: 0.991
[6]; first compound 0.05 µM
  relative viability: 1.03
[6]; first compound 0.1581 µM
  relative viability: 0.892
[6]; first compound 0.5 µM
  relative viability: 1.02
[7]; first compound 0.005 µM
  relative viability: 0.869
[7]; first compound 0.01581 µM
  relative viability: 0.871
[7]; first compound 0.05 µM
  relative viability: 0.629
[7]; first compound 0.1581 µM
  relative viability: 0.788
[7]; first compound 0.5 µM
  relative viability: 0.833
[8]; first compound 0.005 µM
  relative viability: 0.718
[8]; first compound 0.01581 µM
  relative viability: 0.596
[8]; first compound 0.05 µM
  relative viability: 0.772
[8]; first compound 0.1581 µM
  relative viability: 0.714
[8]; first compound 0.5 µM
  relative viability: 0.647
[9]; first compound 0.005 µM
  relative viability: 0.857
[9]; first compound 0.01581 µM
  relative viability: 0.809
[9]; first compound 0.05 µM
  relative viability: 0.75
[9]; first compound 0.1581 µM
  relative viability: 0.852
[9]; first compound 0.5 µM
  relative viability: 0.884
[10]; first compound 0.005 µM
  relative viability: 0.751
[10]; first compound 0.01581 µM
  relative viability: 0.504
[10]; first compound 0.05 µM
  relative viability: 0.589
[10]; first compound 0.1581 µM
  relative viability: 0.738
[10]; first compound 0.5 µM
  relative viability: 0.637
[11]; first compound 0.005 µM
  relative viability: 0.672
[11]; first compound 0.01581 µM
  relative viability: 0.603
[11]; first compound 0.05 µM
  relative viability: 0.625
[11]; first compound 0.1581 µM
  relative viability: 0.535
[11]; first compound 0.5 µM
  relative viability: 0.576
[12]; first compound 0.005 µM
  relative viability: 0.818
[12]; first compound 0.01581 µM
  relative viability: 1.07
[12]; first compound 0.05 µM
  relative viability: 0.88
[12]; first compound 0.1581 µM
  relative viability: 1.02
[12]; first compound 0.5 µM
  relative viability: 0.957
[13]; first compound 0.005 µM
  relative viability: 0.924
[13]; first compound 0.01581 µM
  relative viability: 1.12
[13]; first compound 0.05 µM
  relative viability: 0.777
[13]; first compound 0.1581 µM
  relative viability: 0.947
[13]; first compound 0.5 µM
  relative viability: 0.972
[14]; first compound 0.005 µM
  relative viability: 0.888
[14]; first compound 0.01581 µM
  relative viability: 1.05
[14]; first compound 0.05 µM
  relative viability: 1.51
[14]; first compound 0.1581 µM
  relative viability: 1.1
[14]; first compound 0.5 µM
  relative viability: 0.918
[15]; first compound 0.005 µM
  relative viability: 0.831
[15]; first compound 0.01581 µM
  relative viability: 1.18
[15]; first compound 0.05 µM
  relative viability: 1.13
[15]; first compound 0.1581 µM
  relative viability: 1.17
[15]; first compound 0.5 µM
  relative viability: 1.06
[16]; first compound 0.005 µM
  relative viability: 0.884
[16]; first compound 0.01581 µM
  relative viability: 1.21
[16]; first compound 0.05 µM
  relative viability: 0.865
[16]; first compound 0.1581 µM
  relative viability: 0.856
[16]; first compound 0.5 µM
  relative viability: 1.17
[17]; first compound 0.005 µM
  relative viability: 0.729
[17]; first compound 0.01581 µM
  relative viability: 0.759
[17]; first compound 0.05 µM
  relative viability: 0.822
[17]; first compound 0.1581 µM
  relative viability: 0.819
[17]; first compound 0.5 µM
  relative viability: 0.831
[18]; first compound 0.005 µM
  relative viability: 0.888
[18]; first compound 0.01581 µM
  relative viability: 1.03
[18]; first compound 0.05 µM
  relative viability: 0.996
[18]; first compound 0.1581 µM
  relative viability: 0.971
[18]; first compound 0.5 µM
  relative viability: 1.04
[19]; first compound 0.005 µM
  relative viability: 1.15
[19]; first compound 0.01581 µM
  relative viability: 1.06
[19]; first compound 0.05 µM
  relative viability: 0.837
[19]; first compound 0.1581 µM
  relative viability: 0.925
[19]; first compound 0.5 µM
  relative viability: 1.02
[20]; first compound 0.005 µM
  relative viability: 0.849
[20]; first compound 0.01581 µM
  relative viability: 1.12
[20]; first compound 0.05 µM
  relative viability: 0.886
[20]; first compound 0.1581 µM
  relative viability: 0.896
[20]; first compound 0.5 µM
  relative viability: 0.753
[21]; first compound 0.005 µM
  relative viability: 0.925
[21]; first compound 0.01581 µM
  relative viability: 1.01
[21]; first compound 0.1581 µM
  relative viability: 0.982
[21]; first compound 0.5 µM
  relative viability: 0.657
[22]; first compound 0.005 µM
  relative viability: 1.06
[22]; first compound 0.01581 µM
  relative viability: 1.12
[22]; first compound 0.05 µM
  relative viability: 0.992
[22]; first compound 0.1581 µM
  relative viability: 1.03
[22]; first compound 0.5 µM
  relative viability: 1.06
